Read-outs that look alike come from different tables or passages of the source. Marks after values point to notes of the source that are not given here.
Key:
[1] = system: Squirrel (Saimiri sciureus) monkeys with nigrostriatal damage; experiment: Levodopa-induced dyskinesias in MPTP-lesioned monkeys, nicotine in drinking solution before levodopa (Example 1); assay type: in vivo; conditions: for dyskinetic ratings 3 hours after the afternoon levodopa treatment: scale 0-4, mean ± SE
Protocol: Animals: Squirrel (Saimiri sciureus) monkeys (n=7) were purchased from World Wide Primates (Miami, Fla.). The animals weighed between 0.6-0.9 kg and were in mid to late adulthood as determined from their general appearance (dentition, fur, other). Female monkeys were used since older animals were available that may better model Parkinson's disease. The animals were placed in quarantine upon arrival, and maintained in a temperature-controlled room (27±3° C.) with a relative humidity>30%, under a 13/11-hour light/dark cycle. Monkey food chow and fruits/vegetables were provided once daily, with water provided ad libitum. The monkeys were housed in separate cages to allow for clear behavioral assessments. The animals were released from quarantine after 1 month and treatments initiated. All procedures conformed to the National Institutes of Health Guide for the Care and Use of Laboratory Animals and were approved by the Institutional Animal Care and Use Committee at the Parkinson's Institute.
1-Methyl-4-phenyl-1,2,3,6-tetrahydropyridine (MPTP) administration: Prior to lesioning, the animals were allowed to acclimate to the colony and rated for parkinsonism as described (Langston et al. Ann Neurol. 2000; 47:S79-89). All values were within the normal range. The monkeys were then injected subcutaneously with 2.0 mg/kg MPTP (Sigma, St-Louis, Mo.) dissolved in saline. The animals were rated for parkinsonism 3-4 weeks after MPTP administration. The disability scores ranged from 0 (normal) to 28 for a severely parkinsonian animal. Animals were assessed for 1) spatial hypokinesia (reduction in use of the available cage space), 2) body bradykinesia (increased slowness in body movement), 3) left and 4) right manual dexterity, 5) balance, 6) freezing and 7) action tremor. If they were not parkinsonian, MPTP injection (1.0-2.0 mg/kg) was repeated from 2-5 times for total doses of 3.5 to 13.5 mg/kg. Despite multiple MPTP dosing, two of the animals were not stably parkinsonian.
Nicotine treatment: All monkeys (n=7) were then given a drinking solution for 3 weeks consisting of commercially available orange Gatorade® to mask nicotine's bitter taste (FIG. 1). The control group (n=4) was continued on Gatorade® only, while nicotine (free base) was added to the Gatorade of the treated group (n=3). Nicotine dosing was started at 50 μg/ml for 1 week, 150 μg/ml for 1 week, with the concentration increased by […] over the next few weeks, up to 650 μg/ml (FIG. 1).
Levodopa administration: Monkeys were administered levodopa/carbidopa (5 mg/kg and 1.25 mg/kg, respectively), prepared by crushing a tablet of Sinemet® CR 100/25 (DuPont Pharma) and dissolving it in water. This dose of levodopa is within the range of that prescribed to Parkinson's disease patients. The monkeys were gavaged twice daily at 3.5-hour intervals for 8 weeks at a time using a 5-day-on/2-day-off schedule (Hsu et al., J Pharmacol Exp Ther. 2004; 311:770-777). During levodopa treatment, the monkeys were given fruits in the morning and food pellets 3.5 hours after the afternoon levodopa dose to optimize gastrointestinal absorption.
Dyskinesias were rated from videotapes, as described (Hsu et al., J Pharmacol Exp Ther. 2004; 311:770-777). This included a one hour baseline period (no drugs) from ˜8:00-9:00 AM, followed by two 3.5-hour treatment periods with levodopa starting at ˜9:00 AM and ˜12:30 PM. Dyskinesias were rated for 2-minute periods at 30-minute intervals by two independent raters blinded to treatment. They were rated on a scale of 0 (no dyskinesias) to 4; a score of 1 was indicative of subtle dyskinesias that were not sustained; 2, mild dyskinesias that were sustained; 3, moderate dyskinesias that impaired the ability to remain stationary; 4, severe dyskinesias that were generalized and incapacitating.
Data analyses: The levodopa treatment protocol used in the present study involved a 5-day-on/2-day-off schedule.

CN1CCCC1c1cccnc1 (centres unmarked) [Nicotine, S-3-(1-methyl-2-pyrrolidinyl)pyridine]
total dyskinesias (area under the curve of the time course) ([1]; all time points vs monkeys not receiving nicotine): significant decrease | decline in levodopa-induced dyskinesias ([1]; animals pretreated with nicotine, levodopa naïve monkeys): ~60% | levodopa-induced dyskinesias over the course of the day (time course) ([1]; nicotine up to 650 μg/ml in drinking solution, vs monkeys not receiving nicotine, entire 8-week period): significantly reduced | peak dyskinesias (maximal dyskinetic score during the morning or afternoon) ([1]; throughout the 8-week levodopa treatment vs control): decreased | dyskinetic ratings 3 hours after the afternoon levodopa treatment ([1]; week 2/3 of levodopa treatment, levodopa/carbidopa 5/1.25 mg/kg twice daily): 0.3 ± 0.3 | dyskinetic ratings 3 hours after the afternoon levodopa treatment ([1]; week 4 of levodopa treatment): 0* | dyskinetic ratings 3 hours after the afternoon levodopa treatment ([1]; week 6 of levodopa treatment): 0* | dyskinetic ratings 3 hours after the afternoon levodopa treatment ([1]; week 8 of levodopa treatment): 0.2 ± 0.2 | body weight (minipump 2 mg/kg/d nicotine vs vehicle): similar | fluid intake (nicotine in saccharin drinking solution vs vehicle-treated): drank less | body weight (nicotine via drinking water, continued dosing, rats appeared healthy): small difference

— US7718677B2, “Methods and compositions for reduction of side effects of therapeutic treatments” (priority 2007, dated 2010)
